Laboratory results as given in patent US9101566B2, “Fermentation product of cereal plant-derived material and immunomodulator” (KIRIN HOLDINGS KABUSHIKI KAISHA, priority 2009, dated 2015).

Tests used:
[1] = tested on: multiple sclerosis model mouse (Experimental Autoimmune Encephalomyelitic; EAE); assay: Multiple sclerosis model mouse (EAE): disease score (Example 15); type: in vivo; details: 10 μg/animal i.p. once a day, days 7 to 18; vs vehicle group
Experimental: Eight-week-old female C57BL/6 mice were divided into the following 2 groups at 5 mice per group:
(2) 14-DHE Group (10 μg/Animal)
(§1) On day 0, the 35-55 peptide (MOG35-55, Operon), a glycoprotein of myelin oligodendroglial cells, as an antigen was mixed with complete Freund's adjuvant (CFA, Difco) and then the mixture was subcutaneously administered at a dose of 200 μg/animal. Subsequently, pertussis toxin (Wako Pure Chemical Industries, Japan) was intraperitoneally administered at a dose of 200 ng/animal on day 1 and day 3, thereby inducing the onset of multiple sclerosis. During days 7 to 18, 14-DHE was intraperitoneally administered at a dose of 10 μg/animal once a day. To the vehicle group, the following solvent for 14-DHE was administered: 10% ethanol (Wako Pure Chemical Industries, Japan)/10% Cremophor (Wako Pure Chemical Industries, Japan)/80% PBS (Takara, Japan).
During the experimental period (i.e., during days 0 to 20), disease score was determined based on the following criteria:
Score 1: Unable to freely move tail
Score 2: Unable to normally walk
Score 3: Paralysis of one hindlimb
Score 4: Paralysis of both hindlimbs
Score 5: Paralysis of forelimbs and hindlimbs

[2] = tested on: naive CD4+ T cells from BALB/c mouse spleen; assay: Regulatory T-cell-inducing effect of 14-DHE on CD4+ naive T cells (Example 13); type: cell-based
Experimental: Naive CD4^+ T cells were isolated from BALB/c mouse spleen-derived cells using the CD4^+CD62L^+ T cell isolation kit II (mouse) (Miltenyi Biotec). CD4^+ T cells were seeded at a density of 5×10^5 cells/mL to 48-well plates (2.5×10^5 cells per well), and then 1 μg/mL anti-CD3 antibody and 0.2 μg/mL anti-CD28 antibody were added. At this time, 2 types of media (i.e., media with and without TGF-β) were used. 14-DHE was added at a concentration of 0, 50, 100, 500, and 1000 nM. Five days later, cells were recovered. The proportion of CD25^+FoxP3^+ cells in CD4^+ T cells was determined using a flow cytometer. Prior to flow cytometry, cell surface staining was performed using CD4-APC, CD25-FITC and CD3e-PerCP, cell membrane permeabilization treatment was performed using the FoxP3 staining buffer set (eBioscience), and then FoxP3-PE staining was performed.

[3] = tested on: CD4+ T cells in regional lymph node cells and spleen cells of EAE mice; assay: EAE model, day 11 autopsy: CD4+ T cell proliferation (CFSE); type: in vivo, mouse
Experimental: as §1
Mice were autopsied on day 11 (when inflammation was thought to take place in vivo) to obtain biochemical data.
(3) Regional lymph node cells and spleen cells were stained using the CellTrace CFSE Proliferation kit (Molecular Probes). The stained cells were seeded at a concentration of 1×10^6 cells/mL and then cultured for 3 days with stimulation with 2 μM MOG. Cells were recovered, stained with CD3-PerCP and CD4-APC, and then subjected to FACS analysis. Cell proliferation was evaluated as a proportion of cells with decreased CFSE fluorescence intensity in all cells.

[4] = tested on: DCs induced from C57BL/6 mouse bone marrow cells; assay: Timing and duration of the DC-activation-suppressing effect of 14-DHE (Example 14); type: cell-based
Experimental: In a manner similar to those of the Examples above, C57BL/6 mouse bone marrow cells were prepared and then DCs were induced using Flt-3. The concentration of the added 14-DHE was 3 μM in all cases. The drug residence time in the culture system was controlled by medium exchange. Inflammation was induced using 5 ng/mL LPS, and then the expression level of CD86 was measured using a flow cytometer, so that the characteristics of regulatory DCs were determined. At this time, the cells that had been treated with LPS and without 14-DHE were used as control cells. The median fluorescence intensity (Median Fluorescence Intensity: MFI) of CD86 in the cells treated with 14-DHE was divided by MFI of untreated cells. The determined values indicate: 1 or more, no effect (score: −); 0.7-0.99, weak effect (score: +); 0.4-0.69, moderate effect (score: ++); and 0.4 or less, strong effect (score: +++).

[5] = tested on: human DCs from peripheral blood CD14-positive cells; assay: Human regulatory DC-inducing activity of 14-DHE (Example 16); type: cell-based; details: 14-DHE 1, 3 or 10 μM; ergosterol 10 μM; LPS/IFN-γ or cytokine cocktail 24 h
Experimental: Mononuclear cells were prepared from human peripheral blood by density-gradient centrifugation using Ficoll-Paque (GE Healthcare, Japan). These cells were subjected to positive selection using anti-human CD14 MACS beads (Miltenyi Biotec), so that CD14-positive cells were obtained. CD14-positive cells were cultured in RPMI1640 media (containing 10% FBS (Invitrogen), 50 μmol/L 2-mercaptoethanol (Wako Pure Chemical Industries, Japan), 50 U/mL penicillin, and 50 μg/mL streptomycin (Gibco) (Sigma Aldrich)) supplemented with recombinant human GM-CSF (800 U/mL, Leukine, Berlex) and recombinant human IL-4 (100 ng/mL, Peprotech). During culture, medium exchange was performed once every 2 days. On day 7 of culture, 14-DHE was added at a concentration of 1 μM, 3 μM, or 10 μM. To a control, 10 μM ergosterol, which was a related substance, was added. Also, to a negative control, 1% ethanol, which was a solvent for 14-DHE, was added. The cells were recovered on day 8 of culture, counted, and then suspended at a density of 3×10^5 cells/mL in the above media. To cell suspensions, 1 μg/mL LPS and 100 ng/mL IFN-γ (both, Sigma Aldrich), or cytokine cocktail (1 μg/mL PGE2 (Sigma Aldrich), 10 ng/mL TNF-α, 2 μg/mL IL-6, and 10 ng/mL IL-1β (3 (all, BD Bioscience)) were added, followed by 24-hour culture. After culture, the cells were stained for CD86, HLA-DR, and CD80. Antibodies used were all produced by BD Bioscience. The gate of DCs was set by FSC and SSC, and the expression levels of these cell surface markers were analyzed.

## CC(C)[C@@H](C)/C=C/[C@@H](C)[C@H]1CC=C2C3=CC=C4C[C@@H](O)CC[C@]4(C)[C@H]3CC[C@@]21C [Sample 14-DHE, ergosta-5,7,14,22-tetraen-3β-ol]
[1]
  accumulated disease score: decreases were confirmed
  incidence: decreases were confirmed
  maximum score: decreases were confirmed
  onset: delayed onset
[2]; T cells vs DCs (1 μM)
  effective concentration on T cells lower compared with that of DCs: ≥ 20 times
[2]; absence of TGF-β, 14-DHE 50-1000 nM, 5 days
  proportion of CD25+FoxP3+ cells in CD4+ T cells: no change
[2]; presence of TGF-β, 14-DHE 50 nM (lowest concentration), 5 days
  increase in proportion of CD25+FoxP3+ cells compared with no 14-DHE: ≥ 5 times
[3]
  proliferation rate of CD4+ T cells in lymph node cells: decreasing trend
[3]; with or without re-stimulation with MOG antigen
  proliferation rate of CD4+ T cells in spleen cells: significant decrease
[4]; 14-DHE 3 μM
  duration of the effect: 72 h
[4]; 14-DHE 3 μM added for 5 or 6 days from initiation of differentiation
  DC activation (CD86)-suppressing effect: the degree of the effect significantly decreased
[4]; 14-DHE 3 μM added for 7 days starting from initiation of DC differentiation, LPS 5 ng/mL
  DC activation (CD86)-suppressing effect: strong effect
[4]; 14-DHE 3 μM addition begun on day 7 when DC differentiation was completed
  DC activation (CD86)-suppressing effect: strong effect
[4]; 14-DHE absent at the time of adding LPS
  DC activation (CD86)-suppressing effect: decrease in the effect was observed
[4]; addition begun on day 0 or on day 7
  time within which the effect significantly decreased: ≤ 72 h
[4]; addition from initiation of DC differentiation
  time required for 14-DHE to exhibit its effect: ≥ 7 days
[5]
  expression level of CD80 on human DCs: decreased
  expression level of CD86 on human DCs: decreased
  expression level of MHC class II molecule HLA-DR on human DCs: decreased
